Experiments:
Assay type in all cases: in vivo
Kochia Kochia scoparia = assay: Post-emergence greenhouse herbicide evaluation, kochia; settings: 560 g ae/ha, 14 days after application, visual injury 0-100% vs untreated
Source text: (§1) Post-Emergence Application Methods for Herbicide Evaluations.
(§2) A peat based potting soil, Metro-mix 360, was used as the soil media for this test. Metro-mix is a growing medium consisting of 35 to 45% specially processed Coconut Coir Pith, 10 to 20% horticultural grade vermiculite, 15 to 25% processed Ash Bark, 20 to 30% choice Canadian Sphagnum Peat Moss and proprietary nutrients and other ingredients. Several seeds of each species were planted in 10 cm square pots and top watered twice daily. Plant material was propagated in the greenhouse at a constant temperature of 26 to 28° C. and 50 to 60% relative humidity. Natural light was supplemented with 1000-watt metal halide overhead lamps with an average illumination of 500 μE m^−2 s^−1 photosynthetic active radiation (PAR). Day length was 16 hours. Plant material was top-watered prior to treatment and sub-irrigated after treatment. Treatments were applied with a tracksprayer manufactured by Allen Machine Works. The sprayer utilized an 8003E spray nozzle, spray pressure of 262 kPa pressure and speed of 2.8 mph (4.5 km/h) to deliver 187 L/Ha. The nozzle height was 46 cm above the plant canopy. The growth stage of the various weed species ranged from 2 to 4 leaf. Treatments were replicated 3 times. Plants were returned to the greenhouse after treatment and sub-watered throughout the duration of the experiment. Plant material was fertilized twice weekly with Hoagland's fertilizer solution. Percent visual injury assessments were made on a scale of 0 to 100% as compared to the untreated control plants (where 0 is equal to no injury and 100 is equal to complete death of the plant).

[1] = test system: grapes (Vitis labrusca L.); assay: Volatility evaluation: injury to grapes from vapor exposure to treated wheat; settings: wheat sprayed at 11200 g ae/ha, 24 hour vapor exposure at 40° C., evaluated 7 days after exposure
Source text: Methods for Evaluating the Volatility of 2,4-D Standards and Ionic Liquids of 2,4-D.
Four pots of wheat (Triticum aestivum L.) grown in 4 inch square pots were sprayed at 11200 g ae/ha with each of the different forms of 2,4-D. Treatments were applied with a tracksprayer manufactured by Allen Machine Works. The sprayer utilized an 8002E spray nozzle, spray pressure of 262 kPa pressure and speed of 1.5 mph (2.4 km/h) to deliver 187 L/Ha. The nozzle height was 46 cm above the plant canopy. The growth stage of the wheat was 1 to 2 leaf. The wheat plants were allowed to thoroughly dry to ensure that none of the spray solution was present when they were moved into a clean pot flat. A known sensitive species, grapes (Vitis labrusca L.) were placed at the opposite end of the flat. All of the pots were covered with a humidome with small ½ inch (1.27 cm) diameter holes cut into the end where the wheat was placed and a small box fan powered with a battery in the other end to pull air across the treated wheat plants and over the top of grapes. Plants were placed into a growth chamber with the temperature set at 40° C. with a 14 hour day and a 10 hour night cycle. A 24 hour exposure period was used after which the sensitive plants were then removed and placed in the greenhouse and evaluated for injury from vapor exposure to the treatments.

[2] = test system: Broadleaf Dock Rumex obtusifolia; assay: Post-emergence greenhouse herbicide evaluation, broadleaf dock; settings: 560 g ae/ha, 14 days after application, visual injury 0-100% vs untreated
Source text: as §1, §2

[3] = test system: Large Crabgrass Digitaria Sanguinalis; assay: Post-emergence greenhouse herbicide evaluation, large crabgrass; settings: 240 g ae/ha, 14 days after application, visual injury 0-100% vs untreated
Source text: as §1, §2

[4] = test system: Barnyardgrass Echinochloa crus-galli; assay: Post-emergence greenhouse herbicide evaluation, barnyardgrass; settings: 240 g ae/ha, 14 days after application, visual injury 0-100% vs untreated
Source text: as §1, §2

Row | Compound | % Control Kochia Kochia scoparia (Kochia Kochia scoparia) | % Injury to grapes from vapor exposure [1] | % Control Broadleaf Dock Rumex obtusifolia [2] | % Control Large Crabgrass Digitaria Sanguinalis [3] | % Control Barnyardgrass Echinochloa crus-galli [4]
1 | CCCCOCCOC(=O)COc1ccc(Cl)cc1Cl [2,4-D butoxyethylester (BEE), 2,4-D butoxyethylester, reference compound] | 95% | 100% | 96% | – | –
2 | CNC.O=C(O)COc1ccc(Cl)cc1Cl [2,4-D dimethylamine (DMA), 2,4-D dimethylamine, reference compound] | 76% | 78% | 40% | – | –
3 | CCCCCCCCn1ccnc1.O=C(O)COc1ccc(Cl)cc1Cl [Compound 1c] | 97% | – | 82% | – | –
4 | CCCCCCCCn1ccnc1.O=C(O)COc1nc(Cl)c(Cl)cc1Cl [Compound 2c] | 92% | – | 52% | – | –
5 | CCCCCCN(C)C.O=C(O)COc1ccc(Cl)cc1Cl [Compound 3b] | 97% | – | 73% | – | –
6 | CCCCCCCCN(C)C.O=C(O)COc1ccc(Cl)cc1Cl [Compound 3c] | – | 0% | – | – | –
7 | CCCCCCCCCCCCCCCCN(C)C.O=C(O)COc1ccc(Cl)cc1Cl [Compound 3g] | – | 0% | – | – | –
8 | CCCCCCN(C)C.O=C(O)COc1nc(Cl)c(Cl)cc1Cl [Compound 4b] | 96% | – | 49% | – | –
9 | CCCCCCCCN(C)C.C[C@@H](Oc1ccc(Oc2ccc(C#N)cc2F)cc1)C(=O)O [Compound 4i] | – | – | – | 78% | 100%
10 | CC(Oc1ccc(Oc2ccc(C#N)cc2F)cc1)C(=O)O.CCCCCCCCCCCCCCN(C)C (stereo not shown) [Compound 4j] | – | – | – | 82% | 100%
11 | CN(C)Cc1ccccc1.C[C@@H](Oc1ccc(Oc2ccc(C#N)cc2F)cc1)C(=O)O [Compound 4k] | – | – | – | 85% | 100%
12 | CCCCOCCOC(=O)COc1nc(Cl)c(Cl)cc1Cl [Triclopyr butoxyethylester (BEE), Triclopyr butoxyethylester, reference compound] | 95% | – | 79% | – | –
13 | CCN(CC)CC.O=C(O)COc1nc(Cl)c(Cl)cc1Cl [Triclopyr triethylamine (TEA), Triclopyr triethylamine, reference compound] | 93% | – | 40% | – | –
14 | CCCCOC(=O)[C@H](C)Oc1ccc(Oc2ccc(C#N)cc2F)cc1 [cyhalofop Bu-ester, reference compound] | – | – | – | 92% | 100%
